For one data set, the system named is REF-GG cells. In words: SF2 by limiting dilution analysis of clonogens. The class given is cell-based, rat. The note with it: 5 μM FTI-277. As to the method: FIG. 14B comprises two graphs depicting clonogenic survival of REF-GG cells following treatment with GGTI-298 and irradiation. REF-GG cells were plated at 1 to 5 cells per well in microtiter plates in the absence (top panel) or presence (bottom panel) of 8 μM of the geranylgeranyltransferase inhibitor, GGTI-298. Cells were then irradiated with 2 Gray or were mock irradiated. Cells were re-fed after 24 hours with medium that contained no inhibitor, thus diluting the inhibitor to 0.8 μM. These cells were then incubated for two weeks prior to scoring for colony formation. The data are presented as the natural log of the fraction of negative wells. The surviving fraction at 2 Gray was determined from the differences in the slopes obtained by linear regression of analysis of irradiated and unirradiated cells. The surviving fraction at 2 Gray calculated for cells irradiated after GGTI-298 treatment was 0.64. Control cell surviving fraction after 2 Gray was 0.91. The correlation coefficient for linear regression analysis (r^2) was greater than 0.95 in all cases.
Cells were irradiated with the indicated doses of ionizing radiation and were treated with FTI-277 for 24 hours after irradiation (FIG. 14A). […] The shoulders of the survival curves were reduced as were the overall slopes of the survival curves. […]

The next data set relates to 3.7, 5R and REF-GG cells. The data set is described as follows: Morphological alterations of ras transformed REF cells. The class given is cell-based, rat. As to the method: FIG. 11A is an image of 3.7 cells that were cultured in medium containing 2.5 μM FTI-277 (right) or DMSO (left) for 48 hours.
FIG. 11B is an image of REF-GG cells that were cultured in medium containing 5 μM FTI-277 (right) or DMSO (left) for 48 hours.

In another data set the target is FTase (Homo sapiens, UniProt P49354+P49356). The note with it: cited from earlier work.
In data set [1] the test system is REF, 3.7, 4R, 5R and REF-GG cells. In words: Apoptosis determination after 10 Gray irradiation (propidium iodide). The class given is cell-based, rat. As to the method:
3×10^3 cells/well in 24-well plates were allowed to attach for 12 hours and were then treated with medium containing FTI-277 in DMSO or an equivalent volume of DMSO without inhibitor. Twenty four hours after irradiation with 10 Gray using the irradiator described above, both adherent and non-adherent cells were harvested. Cells were stained with propidium iodide (Muschel et al., 1995, Cancer Res. 55:995-998). A minimum of three independent fields of 100 cells were counted for each sample. Scoring of samples was performed in a double blind manner.

In another data set the test system is 3.7 and 5R cells. In words: Cell growth after FTI-277 treatment. It is filed as cell-based, rat. As to the method: FIG. 15A is a graph depicting growth of primary REF cells (circles) and 3.7 cells (squares) after FTI-277 treatment. Two×10^5 cells were plated in medium containing 2.5 μM (3.7 cells) or 5 μM (REF cells) of FTI-277. […] Cells were harvested from replicate dishes at one day intervals and counted using a hemocytometer to determine the total cell number in each culture. Open symbols: DMSO (drug carrier) treated cells; closed symbols: FTI-277 treated cells.
FIG. 15B is a graph depicting growth of MR4 cells (circles) and 5R cells (squares) following treatment with FTI-277 treatment. Three×10^5 cells were plated in medium containing 5 μM FTI-277. Cells were harvested from replicate dishes at one day intervals and counted using a hemocytometer to determine the total cell number in each culture. Open symbols: DMSO (drug carrier) treated cells; closed symbols: 5 μM FTI-277 treated cells.

The test system of the next data set is K-ras. The data set is described as follows: Western blot of K-ras prenylation in SW480 and Panc-1 cells. It is filed as cell-based, human. The note with it: SW480 cells, 48 hours. On the procedure:
FIG. 17A is an image of a Western blot depicting inhibition by FTI-277 of K-ras prenylation in human SW480 colon carcinoma cells. SW480 cells were treated with the indicated concentrations of FTI-277 (μM) for 48 hours. Samples were harvested and cell lysates were analyzed by Western blotting using either a H-ras monoclonal antibody (top) or a K-ras monoclonal antibody (bottom). Arrows indicate unfarnesylated ras bands.
FIG. 18A is an image of a Western blot depicting the specific inhibition of K-ras prenylation by combined FTI-277 and GGTI-298 treatment. Log phase cultures of human pancreatic carcinoma cells (Panc-1) and colon carcinoma cells (SW480) were treated with 5 μM FTI and 8 μM GGTI 298 for 48 hours. Cell samples were then harvested and cell lysates were prepared for Western blot analysis using monoclonal antibodies to K-ras and nuclear lamin B. The electrophoretic mobility of the K-ras mutant in SW480 is slower than that of the mutant K-ras in Panc-1 cells.
(In general: Immunoblotting shows a protein as a band on a membrane.)

Take `COC(=O)[C@H](CCSC)NC(=O)c1ccc(NC[C@@H](N)CS)cc1-c1ccccc1` [FTI-277]: in the data set on REF-GG cells, the “SF2 (surviving fraction at 2 Gray)” value turned out to be 0.81. Also, the cell morphology result in the data set on 3.7, 5R and REF-GG cells (H-ras transformed REF cells (3.7 cells 2.5 μM), 48 hours) is given as “partial reversion of transformation”; with 3.7, 5R and REF-GG cells (REF-GG cells, 5 μM) it was “did not induce altered cell morphology”. Besides, the FTase inhibition result on FTase was “inhibited Ftase activity”. Moreover, the “inhibitor concentration of maximum effect on apoptosis” value in data set [1] (3.7 cells, 10 Gray) came to 5 µM. For the same molecule, the apoptosis after irradiation result in data set [1] (3.7 cells, 10 Gray, 2.5 μM) is listed as “significant increase”; in data set [1] (untransformed REF cells, 10 Gray), “did not result in an increase in apoptosis”. Besides, the “extent of apoptosis induced by irradiation” value in data set [1] (3.7 cells, 10 Gray, 24 hours) is on record as “greatly enhanced”. In addition, the irradiation-induced apoptosis entry in data set [1] (4R and 5R cells, 10 Gray) is “augment irradiation-induced apoptosis”. Besides, in data set [1] (48 hours, highest doses, 3.7 cells only), the “toxicity of the inhibitor” value is “some toxicity”. Moreover, the “extent of apoptosis after irradiation” value in data set [1] (REF-GG cells) is on record as “no significant effect”. Also, in data set [1] (REF-GG cells, unirradiated), the “baseline level of apoptosis” value was “slightly increased”. Moreover, the cell growth result is given as “some inhibition of cell growth” in the data set with 3.7 and 5R cells (3.7 cells, conditions of radiation survival experiments); “more resistant to growth inhibition” in the data set with 3.7 and 5R cells (5R cells, 5 μM). Further, the “increase in cell number” value in the data set on 3.7 and 5R cells (3.7 cells, day 4 after drug treatment) is listed as “fifty-fold increase in cell number”. Moreover, the “concentration at which altered migration of K-ras became evident” value in the data set on K-ras is 30 µM.
